This is an account of results in patent publication US5756502A, “Quinazolinone derivatives as cholyecystokinin (CCK) ligands” (Warner-Lambert Company, priority 1995, dated 1998).

Broadly, the pKi is the Ki on a negative log10 scale, so that one unit is a factor of ten. As usually defined, the Ki is a measure of affinity in units of concentration, obtained from inhibition or displacement.

pKi: −log10 of the molar value. Read-outs that look alike come from different tables or passages of the source. Some results are limits rather than exact numbers.

One assay concerns the target T1, CCK-B receptor (Mus musculus, UniProt P56481).
T1 construct: from tissue; host or cells: cerebral cortex of male CFLP mice (membranes)
T1 sequence (P56481 1-453): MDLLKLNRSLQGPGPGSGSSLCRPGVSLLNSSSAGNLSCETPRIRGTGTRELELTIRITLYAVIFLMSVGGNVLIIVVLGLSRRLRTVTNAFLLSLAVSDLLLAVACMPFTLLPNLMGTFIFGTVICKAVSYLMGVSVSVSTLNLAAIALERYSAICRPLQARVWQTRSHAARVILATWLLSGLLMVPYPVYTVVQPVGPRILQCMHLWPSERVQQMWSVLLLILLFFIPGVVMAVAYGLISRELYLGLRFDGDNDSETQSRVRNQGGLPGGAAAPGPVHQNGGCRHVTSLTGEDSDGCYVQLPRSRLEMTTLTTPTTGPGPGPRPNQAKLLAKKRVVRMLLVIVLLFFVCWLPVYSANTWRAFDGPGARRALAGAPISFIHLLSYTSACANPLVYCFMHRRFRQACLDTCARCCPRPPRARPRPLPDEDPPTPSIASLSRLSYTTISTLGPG
Description: CCK-B receptor binding (displacement of tritiated-pentagastrin from mouse cerebral cortical membranes). The settings on record: for pKi: 2 nM tritiated-pentagastrin, Hepes buffer pH 7.2, 23° C., read-out: CCK-B (Ki). The protocol:
(§1) The biological activity of compounds of the present invention may be evaluated by employing an initial screening test which rapidly and accurately measures the binding of the tested compound to known CCK receptor sites. […] (See Hays, et al., Neuropeptides 1:53-62, 1980; and Satuer, et al., Science 208:1155-1156, 1980).
In this screening test, the cerebral cortices taken from male CFLP mice weighing between 30 to 40 g were dissected on ice, weighed, and homogenized in 10 volumes of 50 mM Tris-HCl buffer (pH 7.4 at 0°-4° C.). The resulting suspension was centrifuged, the supernate was discarded, and the pellet was washed by resuspension in Tris-HCl buffer followed by recentrifugation. The final pellet was resuspended in 20 volumes of […] buffer (pH 7.2 at 23° C.) containing 130 mM NaCl, […], […].
In saturation studies, cerebral cortical membranes were incubated at 23° C. for 120 minutes in a final volume of 500 μL of Hepes incubation buffer (pH 7.2) together with 0.2-20 nM tritiated-pentagastrin (Amersham International, England).
In the displacement experiments, membranes were incubated with a single concentration (2 nM) of ligand, together with increasing concentrations (10^-11 to 10^-6 M) of competitive test compound. In each case, the nonspecific binding was defined as that persisting in the presence of the unlabeled octapeptide CCK26-33 (10^-6 M)
Following incubation, radioactivity bound to membranes was separated from that free in solution by rapid filtration through Whatman GF/B filters and washed three times with 4 mL of ice cold Tris-HCl buffer. Filters from samples incubated with tritiated-pentagastrin were placed in polyethylene vials with 4 mL of scintillation cocktail, and the radioactivity was estimated by liquid scintillation spectrometry (efficiency 47-52%). […]
Saturation curves for specific tritiated-pentagastrin binding to mouse cortical membranes were analyzed by the methods of Scatchard (Ann. New York Acad. Sci. 51:660-672, 1949), and Hill (J. Physiol. 40:IV-VIII, 1910), to provide estimates for the maximum number of binding sites (Bmax) and the equilibrium dissociation constant (Ka)
In displacement experiments, inhibition curves were analyzed by either logit-log plots or the iterative curve fitting computer program ALLFIT (DeLean, Munson, and Redbard, 1978) to provide estimates of the IC50 and nH (apparent Hill coefficient values). […]
The inhibition constant (Ki) of the test compound was then calculated according to the Cheng-Prusoff equation: [formula] where [L] is the concentration of radiolabel and Ka is the equilibrium dissociation constant. […]

The subject of another assay is CCK-A receptor. As to the kind of experiment: CCK-A receptor binding. The settings on record: for pKi: read-out: CCK-A (Ki). The protocol: as §1
In displacement experiments, inhibition curves were analyzed by either logit-log plots or the iterative curve fitting computer program ALLFIT (DeLean, Munson, and Redbard, 1978) to provide estimates of the IC50 and nH (apparent Hill coefficient values). (IC50 values were defined as the concentration of test compound required to produce 50% inhibition of specific binding).
The inhibition constant (Ki) of the test compound was then calculated according to the Cheng-Prusoff equation: [formula] where [L] is the concentration of radiolabel and Ka is the equilibrium dissociation constant.
The Ki values for several representative compounds of the present invention are present in Table 1.
The following table represents the CCK-A and CCK-B receptor binding affinities of the compounds. [drawing 34]
The testing procedures are disclosed in Hays, et al., Neuropeptides 1:53-62, 1980; and Satuer, et al., Science 208:1155-1156, 1980.

The subject of a further assay is CCK-A receptors. The settings on record: words; cited from earlier work.
For another assay, the system named is CCK-B receptors. Conditions: words; cited from earlier work.

`CC(C)Oc1cccc(-n2c(CNC(=O)OCc3ccccc3)nc3ccccc3c2=O)c1`: on CCK-B receptor, the pKi is 6.21.
Regarding `CC(C)Oc1cccc(-n2c(CNC(=O)c3cnc4ccccc4n3)nc3ccccc3c2=O)c1` [1 -- 2-Quinoxolinyl, 2-Quinoxalinecarboxamide, N-[[1,2-dihydro-3-[3-(1-methylethoxy)phenyl]-4-oxo-2-quinazolinyl]methyl]], on CCK-B receptor, the pKi was 6.07. Besides, the “CCK-A, % @ 10 μM (in the Ki column)” value in the assay on CCK-A receptor (@ 10 μM) is on record as 29%.
On to `CCOC(=O)c1cccc(NC(=O)NCc2nc3ccccc3c(=O)n2-c2cccc(OC(C)C)c2)c1` [1 NH 3-COOEtPh, Benzoic Acid, 3-[[[3,4-dihydro-3-[3-(1-methylethoxy)phenyl]-4-oxo-2-quinazolinyl]methyl]amino]carbonylamino-, ethyl ester], for which the pKi at CCK-A receptor was 5.83.
Turning to `Cc1cccc(NC(=O)NCc2nc3ccccc3c(=O)n2-c2cccc(OC(C)C)c2)c1` [1 NH 3-MePh, Urea, N-[[3,4-dihydro-3-[3-(1-methylethoxy)phenyl]-4-2-quinazolinyl]methyl]-N-(3-methylphenyl)], the pKi on CCK-A receptor is 5.79.
Turning to `CC(C)Oc1cccc(-n2c(CNC(=O)Nc3ccc(Br)cc3)nc3ccccc3c2=O)c1` [1 NH 4-BrPh, Urea, N-(4-bromophenyl)-N-[[3,4-dihydro-3-[3-(1-methylethoxy)phenyl]-4-2-quinazolinyl]methyl]], the negative-log Ki (pKi) at CCK-A receptor was 6.01.
As for `CC(C)Oc1cccc(-n2c(CNC(=O)NCc3ccc(Br)cc3)nc3ccccc3c2=O)c1` [1 NH 4-BrPhCH2], the pKi at CCK-A receptor is 5.51.
For `CC(C)Oc1cccc(-n2c(CNC(=O)Nc3ccc(C(F)(F)F)cc3)nc3ccccc3c2=O)c1` [1 NH 4-CF3 Ph], the pKi at CCK-A receptor was 6.17.
`CC(C)Oc1cccc(-n2c(CNC(=O)Nc3ccc([N+](=O)[O-])cc3)nc3ccccc3c2=O)c1` [1 NH 4-NO2 Ph]: the pKi at CCK-A receptor is 6.41.
Take `Cc1ccc(S(=O)(=O)NC(=O)NCc2nc3ccccc3c(=O)n2-c2cccc(OC(C)C)c2)cc1` [1 NHSO2 4-CH3 Ph, Benzenesulfonamide, N-[[[[3,4-dihydro-[3-(1-methylethoxy)phenyl]-4-oxo-2-quinazolinyl]methyl]amino]carboxy]-4-methyl]: the Ki on CCK-B receptor (bound printed in μM in the Ki, nM column, read-out: CCK-B Ki (cell in μM)) is more than 1 µM; on CCK-A receptor (bound printed in μM in the Ki, nM column, read-out: CCK-A Ki (cell in μM)) it was more than 1 µM.
As for `CC(C)Oc1cccc(-n2c(CCNC(=O)Nc3ccc(Br)cc3)nc3ccccc3c2=O)c1` [2 NH 4-BrPh, Urea, N-(4-bromophenyl)-N'-[2-[3,4-dihydro-3-[3-(1-methylethoxy)phenyl]-4-oxo-2-quinazolinyl]ethyl]], the pKi at CCK-A receptor was 5.79.
Take `CC(C)Oc1cccc(-n2c(CCNC(=O)OCc3ccccc3)nc3ccccc3c2=O)c1` [2 O PhCH2]: the pKi is 6.11 at CCK-B receptor and 5.56 at CCK-A receptor.
As to CCK-4, the “affinity for CCK-A receptors” value in the assay on CCK-A receptors was “lower affinity”. Also, the “affinity for CCK-B receptors” value in the assay on CCK-B receptors was “high affinity”.
Consider CCK-8S: sulfated octapeptide (CCK-8S), for which the “affinity for CCK-A receptors” value in the assay on CCK-A receptors was “high affinity”. The “affinity for CCK-B receptors” value in the assay on CCK-B receptors is reported as “high affinity”.
For “CCK-8d: corresponding desulfated fragment CCK-8d”, the “affinity for CCK-A receptors” value with CCK-A receptors is recorded as “lower affinity”.
As to “gastrin: gastrin peptide sharing a common carboxy terminal pentapeptide sequence with CCK”, the “affinity for CCK-A receptors” value with CCK-A receptors is given as “lower affinity”. In the assay with CCK-B receptors, the “affinity for CCK-B receptors” value is given as “high affinity”.
